Laboratory results published in paper PMC5412877, “Discovery of a PCAF Bromodomain Chemical Probe” (Angewandte Chemie (International Ed. in English), 2016).
“Also recorded” adds a separate entry of the source. Like-named read-outs stand apart in the source and are kept apart here. Marks after values point to notes of the source that are not given here. One block for each compound: values may come before it.

What was measured:
GST-PCAFBRD = target: T1, GST-PCAFBRD (Homo sapiens, UniProt Q92831); assay: HTRF assay, displacement of biotinylated compound 46 from GST-PCAF Brd; format: binding
T1 construct: Final assay concentrations: GST-PCAFBRD (20 nM)
T1 sequence (Q92831 723-827 limits assumed): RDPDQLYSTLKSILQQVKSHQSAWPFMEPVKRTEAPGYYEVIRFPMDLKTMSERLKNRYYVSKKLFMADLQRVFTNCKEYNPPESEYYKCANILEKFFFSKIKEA
Protocol: (§1) obtained from 5 healthy donors. PBMC were cultured either with D-Moses or L-Moses at concentrations of 0.1, 1 and 10 μM or with a control (DMSO) for 24 hours. Viability of PBMC were then checked using LIVE/DEAD Fixable Aqua Dead Cell Stain Kit (ThermoFisher Scientific).
(§2) High Throughput Time Resolved Fluorescence Assay (HTRF)
(§3) HTRF assay was carried out using a Cisbio Epigenous kit B (62BDBPEH) using the standard assay protocol with GST-PCAFBRD.[3] Final assay concentrations: GST-PCAFBRD (20 nM), SA-XL665 (62.5 nM), α-GST donor (62.5 nM), compound 46 (500 nM). Ki was calculated using the Cheng-Prussof equation […]
(§4) Recombinant PfGCN5 (bromodomain only) was expressed in E. coli and purified using a previously described system. The protein crystallized with the compound L-45 at 293 K in 0.1M CaCl2, 30% PEG 8k, 0.2 M NH4SO4. The concentrations of the protein sample and the compound were 10 mg/ml […]
(§5) X-ray diffraction data for the crystal was collected at 100 K at the beamline 08ID-1 of the Canadian Macromolecular Crystallography Facility. The dataset was processed using the HKL-2000 suite, and the structure solved using Phaser, a component of the CCP4 suite with molecular replacement model 4QNS. […]

[1] = target: T2, PCAF‐Brd histone H3.3 interaction (Homo sapiens, UniProt Q92831); assay: nanoBRET target engagement assay, PCAF-Brd / histone H3.3 in HEK293 cells; format: cell-based; settings: live HEK293 cells; compounds 5 μM, 18 h
T2 construct: NanoLuciferase fusion of the isolated bromodomain of PCAF; expressed in transfected cells; host or cells: HEK293
T2 sequence (Q92831 723-827 limits assumed): T1 sequence (Q92831 723-827 limits assumed)
Protocol: page 48: NanoLuciferase Bioluminescent Resonance Energy Transfer (NanoBRET) Assay Methods HEK293 cell (8 x 105) were plated in each well of a 6-well plate and co-transfected with Histone H3.3- HaloTag (NM_002107) and a NanoLuciferase fusion of the isolated bromodomain of PCAF. Twenty hours post-transfection, cells were collected, washed with PBS, and exchanged into media containing phenol red-free DMEM and 4% FBS in the absence (control sample) or the presence (experimental sample) of 100 nM NanoBRET 618 fluorescent ligand (Promega). Cell density was adjusted to 2 x 10^5 cells/ml and then re-plated in a 96-well assay white plate (Corning Costar #3917). […] Readings were performed within 5 minutes using a Glo-MAX Discover instrument (Promega) equipped with 450/8 nm bandpass and 600 nm longpass filters with a 0.3 sec reading setting. A corrected BRET ratio was calculated and is defined as the ratio of the emission at 600 nm/450 nm for experimental samples (i.e. those treated with NanoBRET fluorescent ligand) subtracted by and the emission at 600 nm/450 nm for control samples (not treated with NanoBRET fluorescent ligand). BRET ratios are expressed as milliBRET units (mBU), where 1 mBU corresponds to the corrected BRET ratio multiplied by 1000. […] Compounds were analysed by LC-MS for loss of compound at 0, 5, 15, 30 and 45 minute time points. […]

HGCN5 Brd = target: T3, HGCN5 Brd (Homo sapiens, UniProt Q92830); assay: Isothermal titration calorimetry (ITC), human GCN5 Brd; format: binding
T3 construct: made in house
T3 sequence (Q92830 728-832 limits assumed): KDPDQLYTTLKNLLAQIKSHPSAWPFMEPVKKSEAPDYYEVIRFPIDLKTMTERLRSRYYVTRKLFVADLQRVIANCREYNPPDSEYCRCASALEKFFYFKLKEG
Protocol: (§6) Isothermal Titration Calorimetry (ITC)
(§7) Experiments were carried out on a Nano-ITC Standard Volume Instrument (TA Instruments). All experiments were carried out at 25 °C in 20 mM HEPES pH 7.5, 150 mM NaCl, 0.5 mM TCEP and 5% glycerol. Protein solutions were buffer exchanged by gel filtration. The titrations were conducted using an initial injection of 2 μL followed by 32 injections of 8 μL. Background dilution heat was substracted from each experiment. Thermodynamic parameters were calculated using ΔG = ΔH-T ΔS = -RTlnKB , where KD = 1/KB. ΔG, ΔH and ΔS are changes in free energy, enathalpy and entropy resepectively. Independent single site binding models were employed in data analysis.
Supplemental Figure 2. ITC trace of L-Moses and PCAF Brd
(§8) Supplemental Figure 3. ITC trace of D-Moses and PCAF Brd […]

[2] = Metabolic stability in human liver microsomes; format: in vitro ADME
Protocol: (§9) In vitro Metabolism Studies
(§10) Metabolic stability studies were carried out exposing nominated compounds to samples of liver microsomes. Compounds were analysed by LC-MS for loss of compound at 0, 5, 15, 30 and 45 minute time points. The rate of metabolic degradation of compounds was used to calculate CLint, SE CLint, t1/2 (summarised in supplemental table 2.)
(§11) Supplemental Table 4. In vitro metabolic stability of compounds DL-45/DL-Moses and 39 Compound Metbolic Stability (Human) Metbolic Stability (Mouse) […]

[3] = tested on: peripheral blood mononuclear cells (PBMC); assay: Cytotoxicity in peripheral blood mononuclear cells (PBMC); format: cell-based; settings: 10 μM for 24 hours
Protocol: as §1, §2, §3, §4, §5

GCN5L2 = target: T4, GCN5L2 (Homo sapiens, UniProt Q92830); assay: Differential scanning fluorimetry (DSF), GCN5 (GCN5L2) Brd; format: binding; settings: compound 10 μM
T4 construct: made in house
T4 sequence (Q92830 728-832 limits assumed): T3 sequence (Q92830 728-832 limits assumed)
Protocol: (§12) Protein Expression and Purification
(§13) Human bromodomains were cloned, expressed and purified as previously described.[1]
(§14) Differential Scanning Fluorimetry (DSF)
(§15) Thermal melting points were recorded using an Mx3005p Real Time PCR Machine (Stratagene).
(§16) Subject proteins were buffered in 10 mM HEPES at pH 7.5, 500 mM NaCl and assayed in a 96-well […]
(§17) plate at a final concentration of 2 μM in 20 μL volume. Compounds were then added to a final […]
(§18) concentration of 10 μM. SPYRO Orange (Molecular Probes) was used as a fluorescent probe at a […]
(§19) dilution of 1:1000. Excitation and emission filters for the SPYRO-Orange dye were set to 465 nm and […]
(§20) 590 nm, respectively. The temperature was raised with a step of 3 °C/min from 25 °C to 96 °C and […]
(§21) fluorescence readings were taken at each interval. Data was analysed as previously described.[2]
(§22) Bromodomain affinity selectivity panel of (S)-11
(§23) Supplemental Figure 1. DSF Selectivity panel of (S)-11 against 48 human Bromodomains. […]
(§24) ┼Mean ΔTm ± SEM (number of measurements= 2). Compound concentration: 10 μM […]
(§25) (1 picture or pasted object on this page, not shown here)

[4] = Metabolic stability in mouse liver microsomes; format: in vitro ADME
Protocol: as §9, §10, §11

PCAF Brd [5] = target: T5, PCAF Brd (Homo sapiens, UniProt Q92831); assay: Isothermal titration calorimetry (ITC), PCAF Brd; format: binding
T5 construct: Human bromodomains were cloned, expressed and purified as previously described; made in house
T5 sequence (Q92831 723-827 limits assumed): T1 sequence (Q92831 723-827 limits assumed)
Protocol: as §6, §7, §8

[6] = Permeability in MDCK-MDR1 cells; format: in vitro ADME; settings: dog, direction not given
Kinetic solubility = format: physicochemical; settings: kinetic from dmso stock
PCAF Brd [7] = target: T5, PCAF Brd; assay: Differential scanning fluorimetry (DSF), PCAF Brd; format: binding; settings: for ΔT m [°C] PCAF (DSF): compound concentration 10 μM
Protocol: as §12, §13, §14, §15, §16, §17, §18, §19, §20, §21, §22, §23, §24, §25

MDCK‐MDR1 cells = assay: Permeability in MDCK-MDR1 cells; format: in vitro ADME
HIV‐1 = settings: read-out: HIV-1 EC50; cited from earlier work
PCAF Brd [8] = settings: cited from earlier work
PCAF Brd [9] = target: T5, PCAF Brd; assay: Differential scanning fluorimetry (DSF), PCAF Brd; format: binding; settings: compound concentration 100 μM
48 human Brds = assay: DSF selectivity panel of 48 human bromodomains; format: binding; settings: compound 10 μM
PCAF = tested on: PCAF; set-up: method as in earlier work; settings: read-out: PCAF AlphaLISA IC50; cited from earlier work
[10] = Table 2, read-out: K D (nM) (ITC) PCAF Brd
[11] = read-out: GCN5L2 ΔTm (°C) (DSF)
[12] = Supplemental Table 3, compound concentration 30 μM, protein concentration 280-320 μM, read-out: PCAF KD (μM) (ITC)
[13] = Table 1, read-out: K D [μM] (ITC) PCAF Brd

displacement of PCAF‐Brd from H3.3 in nanoBRET assay [1]: no effect
Kd (PCAF Brd [5]; [12]): > 30000 nM
Structure (SMILES): Cc1nnc2c3ccccc3c(NC(C)C(c3ccccc3)N(C)C)nn12 (centres unmarked) [D‐45]
K D (nM) (ITC) PCAF Brd (PCAF Brd [5]; Table 2): no observable binding; also recorded: Inactive

Kd (GST-PCAFBRD; GST-PCAF Brd, read-out: KD of compound 46 used for Cheng-Prusoff): 400 nM
Structure (SMILES): Cc1nnc2c3ccccc3c(NCC(NCCCCNC(=O)CCOCCOCCOCCOCCNC(=O)CCCCC3SCC4NC(=O)NC43)c3ccccc3)nn12 (centres unmarked) [compound 46, reference compound]

ΔT m [°C] PCAF (DSF) (PCAF Brd [9]): 8.5^[b] °C
Kd (PCAF Brd [5]; [12]): 7980 nM
Kd (PCAF Brd [5]; [13]): 8000 ± 650 nM
Structure (SMILES): Cc1nnc2c3ccccc3c(NCCN(C)C)nn12 [Compound 7]

ΔTm at 10 µM (PCAF Brd [7]; Supplemental Table 1, number of measurements 2, compound 10 μM, read-out: PCAF ΔTm (°C), mean ± SEM): 5.4 °C
ΔT m [°C] PCAF (DSF) (PCAF Brd [7]): 7.4 °C
ΔTm at 10 µM (GCN5L2; Supplemental Table 1, number of measurements 2, read-out: GCN5L2 ΔTm (°C), mean ± SEM): 3.7 °C
ΔTm at 10 µM (GCN5L2; [11]): 4 °C
Kd (PCAF Brd [5]; [12]): 284 nM
Kd (PCAF Brd [5]; [13]): 280 ± 29 nM
Structure (SMILES): Cc1nnc2c3ccccc3c(N[C@@H](C)CN(C)C)nn12 [(S)‐11]
selectivity in DSF panel of 48 human Brds (48 human Brds): no observable activity against other Brds

Second part, the compound before the results:

Structure (SMILES): Cc1nnc2c3ccccc3c(N[C@@H](C)[C@H](c3ccccc3)N(C)C)nn12 [L‐45]
Ki (GST-PCAFBRD): 47 nM
displacement of PCAF‐Brd from H3.3 in nanoBRET assay [1]: single digit μM concentration
Kd (HGCN5 Brd): 550 nM
half-life ([2]; human, liver microsomes, read-out: t1/2 human liver microsomes): 40 min
cytotoxicity in PBMC [3]: no observable cytotoxicity
GCN5L2 ΔTm (°C) (DSF) (GCN5L2; 10 µM): +3.6 °C
half-life ([4]; mouse, liver microsomes, read-out: t1/2 mouse liver microsomes): 38 min
Kd (PCAF Brd [5]; [10]): 126 ± 15 nM
Papp ([6]; MDCK-MDR1, first of 59/70, read-out: MDCK-MDR1 permeability, first value of the pair): 59 ×10⁻⁶ cm/s
Papp ([6]; MDCK-MDR1, second of 59/70, read-out: MDCK-MDR1 permeability, second value of the pair): 70 ×10⁻⁶ cm/s

Structure (SMILES): Cc1nnc2c3ccccc3c(N[C@@H](C)[C@H](c3ccccc3)N(C)C)nn12 (relative stereo) [Compound 45]
microsomal CLint ([2]; human liver microsomes, n 5, read-out: CLint (μL/min/mg protein) human): 35 µL/min/mg
solubility kinetic (Kinetic solubility): > 200 µM
ΔT m [°C] PCAF (DSF) (PCAF Brd [7]): 7.9 °C
ΔTm at 10 µM (GCN5L2; [11]): 5 °C
microsomal CLint ([4]; mouse liver microsomes, n 5, read-out: CLint (μL/min/mg protein) mouse): 37 µL/min/mg
Kd (PCAF Brd [5]; [10]): 168 ± 27 nM
efflux in MDCK‐MDR1 cells (MDCK‐MDR1 cells): low efflux
permeability in MDCK‐MDR1 cells (MDCK‐MDR1 cells): good

Structure (SMILES): NCCCNCc1ccc(NCCCN)[n+]([O-])c1 [Compound 2]
EC50 (HIV‐1): 11500 nM
IC50 (PCAF Brd [8]): 930 nM

Structure (SMILES): CC(C)C[C@H]1C[C@@H](Nc2cnn(C)c(=O)c2Cl)CN(C)C1 [Compound 3]
IC50 (PCAF): 13 nM
